Our source for the IC50 values is patent publication US20260035387A1 (BIOGEN MA INC., priority 2022, published 2026).

The structures appear in SMILES notation.

This assay concerns mutant Huntington (HTT) protein. Nature of the assay: HTT Mutant HTRF iPSC assay (mHTT protein lowering). Particulars: human iPSC derived from a HTT patient with a poly-Q49 mutation. The assay is classed as cell-based. A general note: TR-FRET usually uses a lanthanide donor and a delayed reading to cut background.

As for `Cc1cn2cc(NC(=O)c3cc4ccc(N5C[C@H]6CN[C@H]6C5)nc4s3)cc(F)c2n1` [Compound 202, 6-((1R,5R)-3,6-diazabicyclo[3.2.0]heptan-3-yl)-N-(8-fluoro-2-methylimidazo[1,2-a]pyridin-6-yl)thieno[2,3-b]pyridine-2-carboxamide], the IC50 is < 100 nM. To `Cc1cn2cc(NC(=O)c3cc4ccc(Nc5ccc(CN6CCCC6)cc5)nc4s3)ccc2n1` [Compound 39, N-(2-methylimidazo[1,2-a]pyridin-6-yl)-6-((4-(pyrrolidin-1-ylmethyl)phenyl)amino)thieno [2,3-b]pyridine-2-carboxamide] belongs 1000 to 9000 nM; to `CN(C)C1CCN(c2ccc3cc(C(=O)Nc4ccc5[nH]c(=O)n(C)c5c4)sc3n2)C1` (centres unmarked) [Compound 49, 6-(3-(dimethylamino)pyrrolidin-1-yl)-N-(3-methyl-2-oxo-2,3-dihydro-1H-benzo[d]imidazol-5-yl)thieno[2,3-b]pyridine-2-carboxamide], 1000 to 9000 nM.

In the case of `Cc1cn2cc(NC(=O)c3nc4ccc(C5=CC6CCC(C5)N6)nc4s3)cc(F)c2n1` (centres unmarked) [Compound 130, 5-(8-azabicyclo[3.2.1]oct-2-en-3-yl)-N-(8-fluoro-2-methylimidazo[1,2-a]pyridin-6-yl)thiazolo[5,4-b]pyridine-2-carboxamide], the IC50 is < 100 nM. For the compound `COc1cc(NC(=O)c2nc3ccc(N4CC5(CCN(C)C5)C4)nc3s2)cn2cc(C)nc12` [Compound 267, N-(8-methoxy-2-methylimidazo[1,2-a]pyridin-6-yl)-5-(6-methyl-2,6-diazaspiro[3.4]octan-2-yl)thiazolo[5,4-b]pyridine-2-carboxamide], the IC50 is < 100 nM. As for `Cc1cn2cc(NC(=O)c3cc4ccc(N5CC[C@@H](N(C)C)C5)nc4s3)nc(C)c2n1` [Compound 51, (R)-6-(3-(dimethylamino)pyrrolidin-1-yl)-N-(2,8-dimethylimidazo[1,2-a]pyrazin-6-yl)thieno[2,3-b]pyridine-2-carboxamide], the IC50 is < 100 nM.

Turning to `Cc1cn2cc(NC(=O)c3cc4ccc(N5CCC6CCN(C)CC65)nc4s3)ccc2n1` (centres unmarked) [Compound 16, N-(2-methylimidazo[1,2-a]pyridin-6-yl)-6-(6-methyloctahydro-1H-pyrrolo[2,3-c]pyridin-1-yl)thieno[2,3-b]pyridine-2-carboxamide], the IC50 was 1000 to 9000 nM. To `Cc1cn2nc(NC(=O)c3cc4ccc(N5CC[C@H](N(C)C)C5)nc4s3)ccc2n1` [Compound 52, (S)-6-(3-(dimethylamino)pyrrolidin-1-yl)-N-(2-methylimidazo[1,2-b]pyridazin-6-yl)thieno[2,3-b]pyridine-2-carboxamide] belongs 100 to 1000 nM; to `Cc1cn2cc(NC(=O)c3cc4ncc(C5CCC(N)CC5)nc4s3)cc(F)c2n1` (racemic) [Compound 141, 3-(4-aminocyclohexyl)-N-(8-fluoro-2-methylimidazo[1,2-a]pyridin-6-yl)thieno[2,3-b]pyrazine-6-carboxamide], 1000 to 9000 nM. In the case of `Cc1cn2cc(NC(=O)c3cc4ccc([C@@H]5CCCNC5)nc4s3)cc(F)c2n1` (single isomer, unassigned) [Compound 82] it was < 100 nM.

For the compound `Cc1cn2cc(NC(=O)c3cc4ccc(N5C[C@H]6CNC[C@H]6C5)nc4s3)cc(F)c2n1` [Compound 80, N-(8-fluoro-2-methylimidazo[1,2-a]pyridin-6-yl)-6-((3aR,6aS)-hexahydropyrrolo[3,4-c]pyrrol-2(1H)-yl)thieno[2,3-b]pyridine-2-carboxamide], the IC50 was in the range of 100 to 1000 nM. For `Cc1cn2cc(NC(=O)c3nc4ccc(C5=CCCN(C)C5)nc4s3)cc(F)c2n1` [Compound 133, N-(8-fluoro-2-methylimidazo[1,2-a]pyridin-6-yl)-5-(1-methyl-1,2,5,6-tetrahydropyridin-3-yl)thiazolo[5,4-b]pyridine-2-carboxamide], the IC50 is < 100 nM. In the case of `Cc1cn2cc(NC(=O)c3cc4ccc(N5CC[C@H](N(C)C)C5)nc4s3)cc(F)c2n1` [Compound 54, 6-[(3S)-3-(dimethylamino)pyrrolidin-1-yl]-N-(8-fluoro-2-methyl-imidazo[1,2-a]pyridin-6-yl)thieno[2,3-b]pyridine-2-carboxamide] it was < 100 nM; in that of `Cc1cn2nc(NC(=O)c3cc4ccc(N5CC[C@@H](N(C)C)C5)nc4s3)cc(C)c2n1` [Compound 56, (R)-6-(3-(dimethylamino)pyrrolidin-1-yl)-N-(2,8-dimethylimidazo[1,2-b]pyridazin-6-yl)thieno[2,3-b]pyridine-2-carboxamide], 1000 to 9000 nM; in that of `Cc1cn2cc(NC(=O)c3cc4ccc(N5CC(N(C)C)C(C)(C)C5)nc4s3)cc(F)c2n1` (centres unmarked) [Compound 203, 6-(4-(dimethylamino)-3,3-dimethylpyrrolidin-1-yl)-N-(8-fluoro-2-methylimidazo[1,2-a]pyridin-6-yl)thieno[2,3-b]pyridine-2-carboxamide], < 100 nM.

Compound `Cc1cn2cc(NC(=O)c3cc4ncc(N5C[C@@H]6CN(C)C[C@@H]65)nc4s3)cc(F)c2n1` [Compound 268, N-(8-fluoro-2-methyl-imidazo[1,2-a]pyridin-6-yl)-3-[(1S,5R)-3-methyl-3,6-diazabicyclo[3.2.0]heptan-6-yl]thieno[2,3-b]pyrazine-6-carboxamide] displayed an IC50 of 100 to 1000 nM. For the compound `Cc1cn2cc(NC(=O)c3cc4ccc(N5CC[C@@]6(CCCN6C)C5)nc4s3)nc(C(F)F)c2n1` (single isomer, unassigned) [Compound 254], the IC50 was < 100 nM. Consider `Cc1cn2cc(NC(=O)c3cc4ccc(N5CC6CCCN6CC5C)nc4s3)ccc2n1` (centres unmarked) [Compound 45, 6-(3-methylhexahydropyrrolo[1,2-a]pyrazin-2(1H)-yl)-N-(2-methylimidazo[1,2-a]pyridin-6-yl)thieno[2,3-b]pyridine-2-carboxamide], for which the IC50 was 100 to 1000 nM. To `CN[C@H]1CCN(c2ccc3nc(C(=O)Nc4cc(F)c5nc(C)cn5c4)sc3n2)C1` [Compound 107, (S)-N-(8-fluoro-2-methylimidazo[1,2-a]pyridin-6-yl)-5-(3-(methylamino)pyrrolidin-1-yl)thiazolo[5,4-b]pyridine-2-carboxamide] belongs < 100 nM. To `COc1cc2nn(C)cc2cc1NC(=O)c1cc2ccc(N3CC4(CCCN4C)C3)nc2s1` [Compound 236, N-(6-methoxy-2-methyl-2H-indazol-5-yl)-6-(5-methyl-2,5-diazaspiro[3.4]octan-2-yl)thieno[2,3-b]pyridine-2-carboxamide] belongs < 100 nM; to `Cc1cn2cc(NC(=O)c3cc4ccc(N5CCC6CCN(C)C6C5)nc4s3)ccc2n1` (stereo in doubt) [Compound 30, N-(2-methylimidazo[1,2-a]pyridin-6-yl)-6-((3aR,7aR)-1-methyloctahydro-6H-pyrrolo[2,3-c]pyridin-6-yl)thieno[2,3-b]pyridine-2-carboxamide], 100 to 1000 nM; to `Cc1cn2cc(NC(=O)c3cc4ccc(N5CCC(N(C)C)C5)nc4s3)ccc2n1` (centres unmarked) [Compound 1, 6-[3-(dimethylamino)pyrrolidin-1-yl]-N-(2-methylimidazo[1,2-a]pyridin-6-yl)thieno[2,3-b]pyridine-2-carboxamide], 1000 to 9000 nM. `Cc1cn2cc(NC(=O)c3cc4ccc(N5CCCN(C)CC5)nc4s3)ccc2n1` [Compound 40, 6-(4-methyl-1,4-diazepan-1-yl)-N-(2-methylimidazo[1,2-a]pyridin-6-yl)thieno[2,3-b]pyridine-2-carboxamide]: the IC50 was 100 to 1000 nM. With `COc1cc2nn(C)cc2cc1NC(=O)c1cc2ccc(N3C[C@@H]4CN(C)C[C@@H]43)nc2s1` [Compound 216, N-(6-methoxy-2-methyl-2H-indazol-5-yl)-6-((1S,5R)-3-methyl-3,6-diazabicyclo[3.2.0]heptan-6-yl)thieno[2,3-b]pyridine-2-carboxamide], the IC50 is < 100 nM. In the case of `COc1c(NC(=O)c2nc3ccc(N4CCC(N5CCC5)C4)nc3s2)cn2cc(C)nc2c1F` (racemic) [Compound 126, 5-(3-(azetidin-1-yl)pyrrolidin-1-yl)-N-(8-fluoro-7-methoxy-2-methylimidazo[1,2-a]pyridin-6-yl)thiazolo[5,4-b]pyridine-2-carboxamide] it was < 100 nM; in that of `Cc1cc(NC(=O)c2cc3nc(N4CCC(N(C)C)C4)ccc3o2)cc2cn(C)nc12` (centres unmarked) [Compound 7, N-(2,7-dimethyl-2H-indazol-5-yl)-5-(3-(dimethylamino)pyrrolidin-1-yl)furo[3,2-b]pyridine-2-carboxamide], 1000 to 9000 nM; in that of `Cc1cn2cc(NC(=O)c3nc4ccc(C5CCN(C)CC5)nc4s3)nc(C)c2n1` [Compound 136, N-(2,8-dimethylimidazo[1,2-a]pyrazin-6-yl)-5-(1-methylpiperidin-4-yl)thiazolo[5,4-b]pyridine-2-carboxamide], 1000 to 9000 nM. Turning to `Cc1cn2cc(NC(=O)c3nc4ccc(N5CCC6(CCCN6C)C5)nc4s3)cc(F)c2n1` (centres unmarked) [Compound 98, N-(8-fluoro-2-methylimidazo[1,2-a]pyridin-6-yl)-5-(1-methyl-1,7-diazaspiro[4.4]nonan-7-yl)thiazolo[5,4-b]pyridine-2-carboxamide], the IC50 was < 100 nM. For the compound `COc1cc2nn(C)cc2cc1NC(=O)c1cc2ccc(N3CCC(N(C)C)C3)nc2s1` (single isomer, unassigned) [Compound 244], the IC50 was < 100 nM. In the case of `CN(C)[C@@H]1CCN(c2ccc3cc(C(=O)Nc4cc(F)c5nn(C)cc5c4)sc3n2)C1` [Compound 192, (R)-6-(3-(dimethylamino)pyrrolidin-1-yl)-N-(7-fluoro-2-methyl-2H-indazol-5-yl)thieno[2,3-b]pyridine-2-carboxamide], the IC50 is < 100 nM.

`CN(C)C1CCN(c2ccc3cc(C(=O)Nc4ccc5c(c4)n(C)c(=O)n5C)sc3n2)C1` (centres unmarked) [Compound 58, N-(1,3-dimethyl-2-oxo-2,3-dihydro-1H-benzo[d]imidazol-5-yl)-6-(3-(dimethylamino)pyrrolidin-1-yl)thieno[2,3-b]pyridine-2-carboxamide] came in with an IC50 of 1000 to 9000 nM.

Turning to `COc1cc2nn(C)cc2cc1NC(=O)c1cc2nc(N3CCC(N(C)C)C3)ccc2o1` (centres unmarked) [Compound 170, 5-(3-(dimethylamino)pyrrolidin-1-yl)-N-(6-methoxy-2-methyl-2H-indazol-5-yl)furo[3,2-b]pyridine-2-carboxamide], the IC50 was < 100 nM.

In general, IC50 refers to the concentration at which inhibition is half-maximal. Read a low IC50 as greater potency.
